Data on eight compounds can be found in US5506237A, “Bicyclic nitrogen compounds” (Adir et Compagnie, priority 1993, dated 1996).

Data set [1] has as its target T1, prolyl-endopeptidase in rat cerebral cortex (Rattus norvegicus, UniProt O70196).
T1 sequence (O70196 1-710): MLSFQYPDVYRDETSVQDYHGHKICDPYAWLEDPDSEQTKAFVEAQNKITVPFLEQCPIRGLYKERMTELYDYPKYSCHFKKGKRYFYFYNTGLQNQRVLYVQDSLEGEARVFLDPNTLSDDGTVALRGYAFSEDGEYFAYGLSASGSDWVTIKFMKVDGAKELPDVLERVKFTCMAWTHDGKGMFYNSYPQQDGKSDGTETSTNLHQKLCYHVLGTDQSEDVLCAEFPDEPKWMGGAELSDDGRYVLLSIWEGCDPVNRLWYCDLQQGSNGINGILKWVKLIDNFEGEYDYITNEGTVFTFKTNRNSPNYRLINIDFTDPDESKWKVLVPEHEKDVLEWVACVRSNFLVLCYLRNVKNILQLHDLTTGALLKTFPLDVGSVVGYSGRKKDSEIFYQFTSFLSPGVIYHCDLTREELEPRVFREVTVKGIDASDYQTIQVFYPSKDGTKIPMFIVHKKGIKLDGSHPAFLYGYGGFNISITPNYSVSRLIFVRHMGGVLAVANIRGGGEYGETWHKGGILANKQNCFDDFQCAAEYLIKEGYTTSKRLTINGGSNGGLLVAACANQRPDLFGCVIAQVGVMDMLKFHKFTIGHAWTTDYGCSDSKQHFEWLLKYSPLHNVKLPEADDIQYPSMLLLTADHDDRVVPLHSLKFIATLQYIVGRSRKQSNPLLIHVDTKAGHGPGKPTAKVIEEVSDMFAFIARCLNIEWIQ
The data set is described as follows: Duration of action with respect to in vivo inhibition of prolyl-endopeptidase in rat cerebral cortex. The settings on record: IP.

The target of data set [2] is T1, prolyl-endopeptidase in rat cerebral cortex. The data set is described as follows: Oral bioavailability estimated from inhibiting effect after oral versus IP administration. Format: in vivo. The settings on record: inhibiting effect (%) after oral divided by that after IP administration, 30 or 60 minutes.
Description: The oral bioavailability index (OBI) was determined by dividing the inhibiting effect (%) measured after oral administration by that measured after IP administration.
In the next data set the target is Prolyl-endopeptidase. The data set is described as follows: biochemical.
Prolyl-endopeptidase, sequence (P27028 21-705): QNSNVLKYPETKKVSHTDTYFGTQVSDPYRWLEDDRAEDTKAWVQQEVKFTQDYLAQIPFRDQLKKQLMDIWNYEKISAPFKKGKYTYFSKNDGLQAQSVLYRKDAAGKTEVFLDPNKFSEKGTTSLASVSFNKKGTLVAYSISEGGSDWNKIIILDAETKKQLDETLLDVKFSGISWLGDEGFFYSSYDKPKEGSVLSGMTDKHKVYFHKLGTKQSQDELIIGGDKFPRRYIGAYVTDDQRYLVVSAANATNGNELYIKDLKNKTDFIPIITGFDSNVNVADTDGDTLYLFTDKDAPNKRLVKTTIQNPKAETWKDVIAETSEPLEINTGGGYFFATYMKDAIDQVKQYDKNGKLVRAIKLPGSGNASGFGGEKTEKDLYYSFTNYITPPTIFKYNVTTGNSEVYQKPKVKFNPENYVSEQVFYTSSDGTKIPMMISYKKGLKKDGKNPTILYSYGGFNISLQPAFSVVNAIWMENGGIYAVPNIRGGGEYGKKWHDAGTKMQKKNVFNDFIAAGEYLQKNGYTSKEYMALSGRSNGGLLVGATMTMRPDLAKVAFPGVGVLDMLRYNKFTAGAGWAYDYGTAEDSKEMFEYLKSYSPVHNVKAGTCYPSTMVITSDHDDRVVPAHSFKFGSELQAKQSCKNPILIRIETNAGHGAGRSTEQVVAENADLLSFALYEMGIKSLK
Data set [3] has as its target T1, prolyl-endopeptidase in rat cerebral cortex. The data set is described as follows: In vivo inhibition of prolyl-endopeptidase in rat cerebral cortex after IP administration. The settings on record: 1 mg/kg IP, 30 minutes before preparation of the tissue extract.
Data set [4] shares this target. The data set is described as follows: In vitro inhibition of prolyl-endopeptidase in rat cerebral cortex extract (substrate TRH-pNitroaniline). The settings on record: 37° C. Format: biochemical.

On to `O=C([C@@H]1CSCN1C(=O)CCCc1ccccc1)N1CCCC1` [Zeria, N-(4-phenylbutanoyl)-L-thiaprolylpyrrolidineimide, reference compound], for which the “t1/2 (time for which the inhibiting effect is equal to 50 % of the maximum effect measured at 30 minutes)” value in data set [1] (30 mg/kg) was found to be 1 h. In addition, the “OBI (oral bioavailability index)” value in data set [2] (30 mg/kg) is given as 0.30.

One may read the IC50 as the concentration that gives 50% inhibition. The inhibition is the drop in the measured response relative to a control, in per cent. High values mean strong suppression, low ones little suppression. For the compound `O=C([C@@H]1C2CCC(CC2)N1C(=O)[C@@H]1C[C@H]1c1cccc(C(F)(F)F)c1)N1CCCC1` [Example 6, (3S)-2-{(1R,2R)-[2-(3-Trifluoromethylphenyl)-1-cyclopropyl]carbonyl}-3-[(pyrrolidin-1-yl)carbonyl]-2-azabicyclo[2.2.2]octane], it took 3 nM to reach half-maximal inhibition at Prolyl-endopeptidase (IC50). Moreover, the inhibition at 1 mg/kg in data set [3] is 49%.

`O=C[C@@H]1CCCN1C(=O)CCC(=O)NCc1ccc(Cl)cc1` [ONO, (S)-1-[N-4-chlorobenzylsuccinamoyl] pyrrolidine-2-carbaldehyde, reference compound]: the “t1/2 (time for which the inhibiting effect is equal to 50 % of the maximum effect measured at 30 minutes)” value in data set [1] (30 mg/kg) was 1 h.

As for `O=C([C@@H]1C[C@@H]2CCCC[C@@H]2N1C(=O)[C@@H]1C[C@H]1c1ccc(F)cc1)N1CCCC1` [Example 1], the IC50 against Prolyl-endopeptidase came out at 14 nM. Further, in data set [3], the inhibition at 1 mg/kg was 54%. For the same compound, in data set [1] (1 mg/kg), the “t1/2 (time for which the inhibiting effect is equal to 50 % of the maximum effect measured at 30 minutes)” value was 7 h. Further, the “OBI (oral bioavailability index)” value in data set [2] (1 mg/kg) is 0.90.

Regarding `O=C([C@@H]1C[C@@H]2CCCC[C@@H]2N1C(=O)[C@@H]1C[C@H]1c1cccc(C(F)(F)F)c1)N1CCCC1` [Example 5, (2S,3aS,7aS)-1-{(1R,2R)-[2-(3-Trifluoromethylphenyl)-1cyclopropyl]carbonyl}-2-[(pyrrolidin-1-yl)carbonyl]perhydroindole], in data set [4], inhibition was half-maximal at 1 nM (IC50). The compound further registered an inhibition at 1 mg/kg in data set [3] of 58%.

`O=C([C@@H]1C[C@@H]2CCCC[C@@H]2N1C(=O)C1CC1Cc1ccccc1)N1CCCC1` (single isomer, unassigned) [Example 14]: 1 mg/kg produced 41% inhibition in data set [3].

The compound `O=C([C@@H]1C2CCC(CC2)N1C(=O)[C@@H]1C[C@H]1c1ccc(F)cc1)N1CCCC1` [Example 2, (3S)-2-{(1R,2R)-[2-(4-Fluorophenyl)-1-cyclopropyl]carbonyl}-3-[(pyrrolidin-1-yl)carbonyl]-2-azabicyclo[2.2.2]octane] showed an IC50 at Prolyl-endopeptidase of 40 nM. Also, at 1 mg/kg the inhibition in data set [3] was 42%. The “t1/2 (time for which the inhibiting effect is equal to 50 % of the maximum effect measured at 30 minutes)” value in data set [1] (1 mg/kg) came out at 7 h.

For `O=C([C@@H]1C[C@@H]2CCCC[C@@H]2N1C(=O)[C@@H]1C[C@H]1c1cccs1)N1CCCC1` [Example 3, (2S,3aS,7aS)-1-{(1R,2R)-[2-(2-Thienyl)-1-cyclopropyl]carbonyl}-2-[(pyrrolidin-1-yl)carbonyl]perhydroindole], the IC50 was 14 nM against Prolyl-endopeptidase and 1.4 nM in data set [4]. Also, the inhibition at 1 mg/kg in data set [3] worked out at 59%.
